Source: US20180235210A1, “ANTISENSE COMPOSITIONS TARGETING ERWINIA SPECIES AND METHODS OF USING THE SAME” (priority 2017, published 2018)

How the values were obtained:
[1] = tested on: apple flower-associated bacteria; test: Susceptibility of apple flower-associated bacteria and biocontrol strains (panel); format: cell-based; details: streptomycin 20 μM
Method: Fifty flowers were collected from apple trees Malus×domestica ‘McIntosh’ from the Hamden, Conn. Lockwood farm in May 2016. The stigmas from all 50 flowers were removed, placed into 3 ml of 0.5×PBS, vortexed for 20 seconds, and sonicated for 5 min in a water bath sonicator to release the stigma associated bacteria. PBS buffer containing bacteria cells was serially diluted (10×, 100× and 1000×) and plated on LB agar medium and incubated at 28° C. for 48 h. On the basis of morphological colony characteristics, 200 bacterial colonies were shortlisted, sub-cultured, and identified using 16s rDNA sequencing using the forward primer 63f (5′-CAGGCCTAACACATGCAAGTC-3′) (SEQ ID NO: 10) and reverse primer 1387r (5′-GGG CGG WGT GTA CAA GGC-3′) (SEQ ID NO: 11). Fifteen different species were selected from the 200 bacterial cultures for testing against anti-acpP-CPP1 and streptomycin. Biological control agents Pseudomonas fluorescence A506, Bacillus amyloliquefaciens D747 and Pantoea agglomerans E325 were isolated from the original products on LB agar plate.
Compared to the traditional antibiotics that kill microbes with little selection, antisense antimicrobials inhibit bacterial growth through a sequence specific manner. […] Two hundred bacterial colonies were subcultured, and the identities of these colonies were determined by 16S rDNA sequencing. […]

acpP mRNA = test: Northern blot detection of acpP expression in treated cells; format: cell-based, Erwinia amylovora; details: streptomycin 1 μM and 3 μM, 15.5 hrs post inoculation
Method: E. amylovora Ea110 was inoculated into LB broth at the final concentration of 5×10^5 CFU/ml, and was treated with various concentrations of PNA-CPP, water, or streptomycin. The inoculated cells were incubated at 28° C. with orbital shaking, and were collected for RNA isolation at 15.5 hrs post inoculation. Total bacterial RNA was isolated using the RNeasy Protect Bacteria Mini Kit (Qiagen, Valencia, Calif., USA) following the manufacturer's instructions. The quality and quantity of RNA was measured with a Nanodrop 2000c (Thermo Scientific, Wilmington, Del., USA).
The probe for acpP detection in Northern blots was synthesized from polymerase chain reaction (PCR) using acpP primers (forward primer 5′-TGGGCGTTAAGCAGGAAGAAG-3′ (SEQ ID NO: 5) and reverse primer 5′-TACGCCTGGTGACCATTGAT (SEQ ID NO: 6)). The PCR product was purified using a QIAquick PCR Purification kit (Qiagen) and labelled using a Biotin DecaLabel DNA Labeling Kit (Thermo Fisher Scientific, Grand Island, N.Y.) as per instruction of kit manual. Thirty micrograms of RNA was loaded for each sample and was separated on a formaldehyde denaturing gel in MOPS buffer. BrightStar®-Plus positively-charged nylon membranes (Thermo Fisher Scientific) were used for transfer of RNA from gel to membrane. […] The biotin signal was detected using a Biotin Chromogenic Detection Kit (Thermo Fisher Scientific).

Erwinia amylovora Ea110 = test: Measurement of bacterial growth inhibition / MIC in LB broth; format: cell-based
Method: The highly-virulent strain E. amylovora Ea110, which was isolated from an apple orchard in Michigan (Zhao et al., 2005), was used in this study. Bacterial strains were stored at −80° C. in 15% glycerol and cultured in Luria-Bertani (LB) medium at 28° C. PNA-CPP was synthesized using Bts oligomerization method by Panagene Inc (Daejeon, Korea). Streptomycin and PNA-CPP were implemented at rates indicated in each assay.
Erwinia amylovora Ea110 was cultured in LB broth overnight and then cell concentrations were adjusted to 5×10^5 CFU/ml in LB broth. A total of 80 μl of the bacterial suspension in LB was added into each well of a 96 well plate. Lyophilized PNA-CPP was resuspended in water to a stock concentration of 100 μM and was serial diluted. Twenty μl of the diluted PNA-CPP solution was added into each well that contained 80 μl of the bacterial suspension in LB to make the final concentrations indicated in each assay. Water and streptomycin were added to the wells as negative and positive controls. The plate was incubated at 28° C. with orbital shaking in a BioTek Synergy H1 microplate reader (BioTek, Winooski, Vt., USA) for 20 hr. During the incubation, the OD 600 of each well was measured every 10 min. The lowest concentration of a PNA-CPP that prevented growth after 20 hr represented the MIC. Three replicates were included in each testing, and the experiment was repeated twice.

| Molecule | susceptibility of strains tested [1] | acpP mRNA abundance (acpP mRNA) | MIC (Erwinia amylovora Ea110; Erwinia amylovora, E. amylovora Ea110, LB broth, 28° C., 20 hr, read-out: minimal inhibitory concentration (MIC)) [µM] | growth inhibition of E. amylovora (Erwinia amylovora Ea110; LB broth, any concentration tested, compared to water) |
| --- | --- | --- | --- | --- |
| [H]/N=C(/N)N[C@H]1[C@H](O)[C@@H](O)[C@H](O[C@@H]2O[C@@H](C)[C@](O)(C=O)[C@H]2O[C@@H]2O[C@@H](CO)[C@H](O)[C@@H](O)[C@@H]2NC)[C@@H](N/C(N)=N\[H])[C@@H]1O [streptomycin] | All strains tested are susceptible to streptomycin with the exception of P. fluorescens A506 | did not affect | 2 |  |
| anti-acpP PNA: 10-nucleotide PNA oligomer 5′-ctcatactat-3′ (SEQ ID NO: 1), antisense to start codon region of acpP, no CPP (CTCATACTAT; all peptide nucleic acid (PNA)) |  |  |  | did not display any growth inhibition |
